From patent US12171229B2, “Heteroaryl-triazole and heteroaryl-tetrazole compounds as pesticides” (BAYER AKTIENGESELLSCHAFT, priority 2018, dated 2024)

Key:
Assay type in all cases: in vivo
Diabrotica balteata = Diabrotica balteata spray test; details: Diabrotica balteata, in Triticum aestivum, 168 h, after 7 days, larvae on wheat seeds, read-out: efficacy (seedlings grown up); for pest or weed control at 80 µg/disc, 250 g/ha: 80 μg/well (=250 g/ha); for pest or weed control at 160 µg/disc, 500 g/ha: 160 μg/well (=500 g/ha)
Description: Diabrotica balteata—Spray Test [table] To produce a suitable preparation of active compound, 1 part by weight of active compound is mixed with the stated amount of solvent, and the concentrate is diluted with water, containing an emulsifier concentration of 1000 ppm, to the desired concentration. Further test concentrations are prepared by dilution with emulsifier containing water. Soaked wheat seeds (Triticum aestivum) are placed in a multiple well plate filled with agar and some water and are incubated for 1 day to germinate (5 seeds per well). The germinated wheat seeds are sprayed with a test solution containing the desired concentration of the active ingredient. Afterwards each unit is infected with 10-20 larvae of the banded cucumber beetle (Diabrotica balteata). After 7 days efficacy in % is determined. 100% means all the seedlings have grown up like in the untreated, uninfected control; 0% means none of the seedlings have grown.

Spodoptera frugiperda = Spodoptera frugiperda spray test; details: 168 h, after 7 days, larvae on maize leaf sections
Description: Spodoptera frugiperda—Spray Test
(§1) To produce a suitable preparation of active compound, 1 part by weight of active compound is mixed with the stated amount of solvents and is diluted with water, containing an emulsifier concentration of 1000 ppm, to the desired concentration. Further test concentrations are prepared by dilution with emulsifier containing water.
Maize (Zea mays) leaf sections are sprayed with a preparation of the active ingredient of the desired concentration. Once dry, the leaf sections are infested with fall armyworm larvae (Spodoptera frugiperda).
After 7 days mortality in % is determined. 100% means all caterpillars have been killed and 0% means none of the caterpillars have been killed.

Nezara viridula = Nezara viridula spray test; details: 96 h, after 4 days, larvae on barley plants
Description: Nezara viridula—Spray Test
as §1, with “solvent,” for “solvents”, “and the concentrate” for “and”
Barley plants (Hordeum vulgare) infested with larvae of the southern green stink bug (Nezara viridula) are sprayed with a test solution containing the desired concentration of the active ingredient.
After 4 days mortality in % is determined. 100% means all the stink bugs have been killed: 0% means none of the stink bugs have been killed.

Myzus persicae [1] = experiment: Myzus persicae oral test; details: 120 h, 4 ppm, after 5 days
Description: Solvent: 100 parts by weight acetone
To produce a suitable preparation of active compound, 1 part by weight of active compound is mixed with the stated amount of solvent, and the concentrate is diluted with water to the desired concentration.
50 μl compound solution is filled in microtiter plates and 150 μl IPL41 insect medium (33%+15% sugar) is added to obtain a total volume of 200 μl per well. Afterwards the plates are sealed with parafilm through which a mixed population of the green peach aphid (Myzus persicae) can suck on the compound preparation.
(§2) After 5 days mortality in % is determined. 100% means all aphids have been killed and 0% means none of the aphids have been killed.

Boophilus microplus = Boophilus microplus injection test; details: Rhipicephalus microplus, 168 h; 20 μg/animal injected into the abdomen; adult engorged female ticks; egg deposition after 7 days; read-out: efficacy (infertile eggs)
Description: Boophilus Microplus—Injection Test Solvent: dimethyl sulfoxide To produce a suitable preparation of active compound, 10 mg of active compound are dissolved in 0.5 ml solvent, and the concentrate is diluted with solvent to the desired concentration. Five adult engorged female ticks (Boophilus microplus) are injected with 1 μl compound solution into the abdomen. The ticks are transferred into replica plates and incubated in a climate chamber. After 7 days egg deposition of fertile eggs is monitored. Eggs where fertility is not visible are stored in a climate chamber till hatching after about 42 days. An efficacy of 100% means all eggs are infertile; 0% means all eggs are fertile.

Ctenocephalides felis = Ctenocephalides felis oral test; details: 48 h, 100 ppm in cattle blood, after 2 days, adult unfed cat fleas
Description: Ctenocephalides Felis—Oral Test
Solvent: dimethyl sulfoxide
To produce a suitable preparation of active compound, 10 mg of active compound are dissolved in 0.5 ml solvent, and the concentrate is diluted with cattle blood to the desired concentration.
Approximately 20 adult unfed cat fleas (Ctenocephalides felis) are placed in flea chambers. The blood chamber, sealed with parafilm on the bottom, are filled with cattle blood supplied with compound solution and placed on the gauze covered top of the flea chamber, so that the fleas are able to suck the blood. The blood chamber is heated to 37° C. whereas the flea chamber is kept at room temperature.
After 2 days mortality in % is determined. 100% means all the fleas have been killed; 0% means none of the fleas have been killed.

[2] = system: Aedes aegypti strain MONHEIM; experiment: Aedes aegypti test (AEDSAE surface treatment & contact assay); details: 24 hours after contact, read-out: efficacy (mortality)
Description: Aedes Aegypti Test (AEDSAE Surface Treatment & Contact Assay)
Solvent: Aceton+2000 ppm rapeseed oil methyl ester (RME)
In order to produce a sufficient, active ingredient containing solution it is necessary to solve the test compound in the solvent-mix (acetone at 2 mg/ml/RME 2000 ppm). This solution is pipetted onto a glazed tile and after evaporation of the acetone, adult mosquitoes of the species Aedes aegypti strain MONHEIM are placed onto the dried surface. The exposure time is 30 minutes.
Mortality in percent (%) is determined 24 hours after contact of the insects to the treated surface. 100% mortality means that all tested insects are dead, whereas 0% means that no insect died.

Myzus persicae [3] = experiment: Myzus persicae spray test; details: foliar, 120 h, 500 g/ha, after 5 days, Chinese cabbage leaf disks
Description: Myzus persicae—Spray Test
as §1
Chinese cabbage (Brassica pekinensis) leaf disks infected with all instars of the green peach aphid (Myzus persicae), are sprayed with a preparation of the active ingredient of the desired concentration.
as §2

Structure (SMILES)	pest or weed control at 80 µg/disc, 250 g/ha (Diabrotica balteata) [%]	pest or weed control at 160 µg/disc, 500 g/ha (Diabrotica balteata) [%]	mortality at 100 g/ha (Spodoptera frugiperda) [%]	mortality at 500 g/ha (Spodoptera frugiperda) [%]	mortality at 100 g/ha (Nezara viridula; 100 g/ha) [%]	mortality at 500 g/ha (Nezara viridula) [%]	mortality at 4 ppm (Myzus persicae [1]) [%]	pest or weed control at 0.02 mg (Boophilus microplus) [%]	mortality at 100 ppm (Ctenocephalides felis) [%]	mortality at 4 mg/m2 ([2]; surface concentration 4 mg/m^2, exposure 30 minutes) [%]	mortality at 20 mg/m2 ([2]; surface concentration 20 mg/m^2, exposure 30 minutes) [%]	mortality at 500 g/ha (Myzus persicae [3]) [%]
C[C@H](NC(=O)c1cc(C(F)(F)F)cc(C(F)(F)F)c1)c1ncnn1-c1nccs1 [Example I-103]	100	100	100	100	100	100	100	–	–	–	–	–
C[C@H](NC(=O)c1cc(Cl)cc(C(F)(F)F)c1)c1ncnn1-c1ccc(S(=O)(=O)C(F)(F)F)cn1 [Example I-027, 3-chloro-5-(trifluoromethyl)-N-[(1S)-1-(1-{5-[(trifluoromethyl)sulfonyl]pyridin-2-yl}-1H-1,2,4-triazol-5-yl)ethyl]benzamide]	100	100	100	100	–	–	–	100	100	–	–	–
C[C@H](NC(=O)c1cc(Cl)cc(C(F)(F)F)c1)c1ncnn1-c1ccc(C(N)=O)cn1 [Example I-100]	100	100	100	100	–	100	100	–	100	–	–	–
C[C@H](NC(=O)c1cc(Cl)cc(C(F)(F)F)c1)c1ncnn1-c1ccc(NC(=O)c2ccc(F)cc2)cn1 [Example I-036]	100	100	100	100	–	–	100	100	100	–	–	–
C[C@H](NC(=O)c1cncc(I)c1)c1ncnn1-c1ccc(C#N)cn1 [Example I-063]	100	100	–	83	–	–	100	100	100	90 to 100	90 to 100	–
CON=Cc1ccc(-n2ncnc2[C@H](C)NC(=O)c2cc(Cl)cc(C(F)(F)F)c2)nc1 [Example I-065, 3-chloro-N-[(1S)-1-(1-{5-[(methoxyimino)methyl]pyridin-2-yl}-1H-1,2,4-triazol-5-yl)ethyl]-5-(trifluoromethyl)benzamide]	100	100	100	100	–	90	–	–	–	–	–	90
C[C@H](NC(=O)c1cc(Cl)cc(C(F)(F)F)c1)c1ncnn1-c1ccc(OC(F)(F)F)cn1 [Example I-016]	100	100	100	100	–	–	–	100	100	–	–	–
C[C@H](NC(=O)c1cc(Cl)cc(C(F)(F)F)c1)c1ncnn1-c1ccc(NC(=O)CC#N)cn1 [Example I-073]	100	100	–	–	–	–	–	100	100	–	–	90
